{"source": "ChEMBL document CHEMBL1201862", "about": "“PubChem BioAssay data set” (2004)", "key": {"[1]": {"target": "Mu-type opioid receptor (Homo sapiens, UniProt P35372)", "sequence (P35372 whole entry)": "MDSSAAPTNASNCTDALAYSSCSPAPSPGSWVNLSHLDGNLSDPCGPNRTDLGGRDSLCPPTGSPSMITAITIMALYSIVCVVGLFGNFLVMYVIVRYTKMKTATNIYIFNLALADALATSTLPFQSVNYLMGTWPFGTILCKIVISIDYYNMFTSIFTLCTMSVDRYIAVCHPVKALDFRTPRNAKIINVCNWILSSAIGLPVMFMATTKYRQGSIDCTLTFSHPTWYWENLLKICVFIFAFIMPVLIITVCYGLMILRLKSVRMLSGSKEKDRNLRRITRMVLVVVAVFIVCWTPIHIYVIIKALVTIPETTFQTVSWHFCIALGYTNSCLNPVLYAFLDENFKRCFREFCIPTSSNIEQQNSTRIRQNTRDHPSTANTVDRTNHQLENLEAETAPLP", "test": "(§1) Counterscreen for agonists of heterodimerization of the mu 1 (OPRM1) and delta 1 (OPRD1) opioid receptors: Luminescence-based cell-based high throughput dose response assay to identify agonists of OPRM1 homodimerization.", "assay_type": "functional"}, "[2]": {"target": "5-hydroxytryptamine receptor 5A (Homo sapiens, UniProt P47898)", "sequence (P47898 whole entry)": "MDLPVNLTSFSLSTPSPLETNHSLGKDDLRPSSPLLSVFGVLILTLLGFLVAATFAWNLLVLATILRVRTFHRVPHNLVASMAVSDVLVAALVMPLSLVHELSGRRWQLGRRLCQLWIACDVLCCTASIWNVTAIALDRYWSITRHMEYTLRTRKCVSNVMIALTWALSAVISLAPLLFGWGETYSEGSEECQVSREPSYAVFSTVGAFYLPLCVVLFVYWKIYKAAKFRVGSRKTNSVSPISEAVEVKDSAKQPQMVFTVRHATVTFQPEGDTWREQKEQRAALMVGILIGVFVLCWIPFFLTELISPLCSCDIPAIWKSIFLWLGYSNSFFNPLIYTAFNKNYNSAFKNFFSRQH", "test": "Counterscreen for agonists of OPRM1-OPRD1 heterodimerization: luminescence-based cell-based high throughput dose response assay to identify agonists of 5-hydroxytryptamine (serotonin) 5A receptor (HTR5A). [Related pubchem assays (depositor defined):AID504326, AID504355, AID504692, AID504904, AID504905]", "assay_type": "functional"}, "[3]": {"target": "Delta-type opioid receptor (Homo sapiens, UniProt P41143)", "sequence (P41143 whole entry)": "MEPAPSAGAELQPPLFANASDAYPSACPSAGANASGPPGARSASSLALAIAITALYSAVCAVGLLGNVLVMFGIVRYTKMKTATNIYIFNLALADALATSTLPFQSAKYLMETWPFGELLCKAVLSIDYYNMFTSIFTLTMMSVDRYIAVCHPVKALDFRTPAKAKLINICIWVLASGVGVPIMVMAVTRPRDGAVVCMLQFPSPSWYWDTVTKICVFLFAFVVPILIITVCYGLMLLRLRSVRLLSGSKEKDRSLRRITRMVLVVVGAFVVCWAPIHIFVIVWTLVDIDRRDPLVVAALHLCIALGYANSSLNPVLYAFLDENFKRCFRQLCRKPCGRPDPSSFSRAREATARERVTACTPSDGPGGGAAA", "test": "as §1, with “of OPRD1” for “of OPRM1”, “homodimerization. [Related pubchem assays (depositor defined):AID504326, AID504355, AID504692, AID504904, AID504905]” for “homodimerization.”", "assay_type": "functional"}, "[4]": {"target": "Cytochrome P450 2D6 (Homo sapiens, UniProt P10635)", "sequence (P10635 whole entry)": "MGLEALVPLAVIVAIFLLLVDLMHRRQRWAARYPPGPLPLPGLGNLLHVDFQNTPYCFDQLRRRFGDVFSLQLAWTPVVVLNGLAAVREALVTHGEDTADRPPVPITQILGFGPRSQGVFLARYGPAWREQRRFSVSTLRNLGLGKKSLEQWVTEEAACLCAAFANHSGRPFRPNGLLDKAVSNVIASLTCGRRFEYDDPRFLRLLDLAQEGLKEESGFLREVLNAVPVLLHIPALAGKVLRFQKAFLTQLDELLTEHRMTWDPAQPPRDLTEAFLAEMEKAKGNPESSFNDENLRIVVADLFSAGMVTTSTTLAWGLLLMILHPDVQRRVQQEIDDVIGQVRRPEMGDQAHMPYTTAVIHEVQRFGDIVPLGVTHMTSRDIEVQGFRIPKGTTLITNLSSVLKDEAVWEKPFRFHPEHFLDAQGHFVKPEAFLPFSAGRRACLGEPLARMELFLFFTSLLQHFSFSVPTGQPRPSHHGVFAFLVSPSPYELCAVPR"}, "[5]": {"target": "T1, Corticotropin-releasing factor receptor 2/Corticotropin-releasing factor-binding protein (Homo sapiens, UniProt P24387+Q13324)", "T1 sequence (Q13324 whole entry)": "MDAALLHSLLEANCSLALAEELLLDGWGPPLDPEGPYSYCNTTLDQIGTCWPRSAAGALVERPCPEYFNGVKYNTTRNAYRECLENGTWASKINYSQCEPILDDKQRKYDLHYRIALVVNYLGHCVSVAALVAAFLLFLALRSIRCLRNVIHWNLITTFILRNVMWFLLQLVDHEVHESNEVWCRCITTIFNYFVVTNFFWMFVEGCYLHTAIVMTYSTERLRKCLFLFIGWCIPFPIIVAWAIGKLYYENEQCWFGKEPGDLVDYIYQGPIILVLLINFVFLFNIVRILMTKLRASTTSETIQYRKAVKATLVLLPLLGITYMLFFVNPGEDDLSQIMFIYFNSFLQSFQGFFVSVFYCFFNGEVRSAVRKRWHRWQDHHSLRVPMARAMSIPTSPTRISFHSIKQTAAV", "T1 sequence (P24387 whole entry)": "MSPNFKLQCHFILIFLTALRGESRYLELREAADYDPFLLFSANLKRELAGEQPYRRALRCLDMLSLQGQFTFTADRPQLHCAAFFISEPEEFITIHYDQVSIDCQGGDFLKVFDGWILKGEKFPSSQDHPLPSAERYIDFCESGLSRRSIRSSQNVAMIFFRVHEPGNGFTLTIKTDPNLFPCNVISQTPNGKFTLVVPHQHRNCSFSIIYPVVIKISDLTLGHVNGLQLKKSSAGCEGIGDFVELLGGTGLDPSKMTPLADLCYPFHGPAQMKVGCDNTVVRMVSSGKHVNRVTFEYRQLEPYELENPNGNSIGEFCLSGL", "test": "activators of CRF receptor 2 with binding protein – uHTS hits, confirmation (AID 602473)", "assay_type": "functional", "conditions": "read-out: EC50_Mean"}, "[6]": {"target": "T1, Corticotropin-releasing factor receptor 2/Corticotropin-releasing factor-binding protein", "test": "Dose Response confirmation of uHTS hits for small molecule antagonists of the CRF-binding protein and CRF-R2 receptor complex.", "assay_type": "functional", "conditions": "read-out: IC50_Mean"}, "[7]": {"test": "CRF-BP/CRF-R2 complex antagonists, dose response, cell-based, uHTS hits, 384-well (AID 651639)", "assay_type": "functional, Homo sapiens", "conditions": "read-out: IC50_Mean"}, "[8]": {"test": "THP-1 cell cytotoxicity, dose response, cytotoxicity control for non-replicating M. tuberculosis project (AID 489025)", "assay_type": "functional"}, "[9]": {"test": "HepG2 cell cytotoxicity, dose response, cytotoxicity control for non-replicating M. tuberculosis project (AID 489018)", "assay_type": "functional", "conditions": "Mycobacterium tuberculosis"}, "[10]": {"test": "Vero E6 cell cytotoxicity, dose response, cytotoxicity control for non-replicating M. tuberculosis project, secondary assay (AID 492998)", "assay_type": "functional, VeroE6", "conditions": "Vero C1008"}, "[11]": {"tested_on": "Vero", "test": "cells", "assay_type": "functional", "conditions": "Chlorocebus sabaeus"}, "[12]": {"test": "Luminescence Cell-Based Dose Response HTS to Identify Inhibitors of 5'UTR Stem-Loop Driven Prion Protein mRNA Translation in H4 Neuroglioblastoma Cells. [Related pubchem assays: 1827 (Project Summary), 1813 (Primary HTS)]", "assay_type": "functional"}, "[13]": {"target": "Cytochrome P450 2C19 (Homo sapiens, UniProt P33261)", "sequence (P33261 whole entry)": "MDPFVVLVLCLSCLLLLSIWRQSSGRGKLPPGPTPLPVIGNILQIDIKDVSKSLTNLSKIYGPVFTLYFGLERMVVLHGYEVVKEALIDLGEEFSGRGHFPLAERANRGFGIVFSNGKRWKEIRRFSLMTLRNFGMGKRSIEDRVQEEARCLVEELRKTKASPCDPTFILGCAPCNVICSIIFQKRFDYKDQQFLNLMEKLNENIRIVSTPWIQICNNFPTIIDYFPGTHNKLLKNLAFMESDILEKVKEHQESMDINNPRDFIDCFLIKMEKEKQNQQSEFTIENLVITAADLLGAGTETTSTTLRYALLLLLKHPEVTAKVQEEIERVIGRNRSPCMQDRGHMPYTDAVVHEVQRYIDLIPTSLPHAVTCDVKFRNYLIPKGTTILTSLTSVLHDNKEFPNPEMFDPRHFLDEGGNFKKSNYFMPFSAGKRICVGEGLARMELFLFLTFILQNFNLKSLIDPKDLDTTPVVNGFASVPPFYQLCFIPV", "test": "Cytochrome panel assay with activity outcomes. Panel member name: p450-cyp2c19 Compounds with AC50 equal or less than 10 uM are considered active", "assay_type": "functional", "conditions": "read-out: AC50"}, "[14]": {"test": "inhibitors of firefly luciferase expression or activity, dose response, H4 neuroglioma cells, luminescence (AID 1990)", "assay_type": "functional, cell-based"}, "[15]": {"test": "inhibitors of SNCA 5'UTR-driven reporter translation, confirmation, H4 neuroglioma cells, luminescence (AID 1988)", "assay_type": "functional, cell-based"}, "[16]": {"target": "Hepatocyte nuclear factor 4-alpha (Homo sapiens, UniProt P41235)", "sequence (P41235 whole entry)": "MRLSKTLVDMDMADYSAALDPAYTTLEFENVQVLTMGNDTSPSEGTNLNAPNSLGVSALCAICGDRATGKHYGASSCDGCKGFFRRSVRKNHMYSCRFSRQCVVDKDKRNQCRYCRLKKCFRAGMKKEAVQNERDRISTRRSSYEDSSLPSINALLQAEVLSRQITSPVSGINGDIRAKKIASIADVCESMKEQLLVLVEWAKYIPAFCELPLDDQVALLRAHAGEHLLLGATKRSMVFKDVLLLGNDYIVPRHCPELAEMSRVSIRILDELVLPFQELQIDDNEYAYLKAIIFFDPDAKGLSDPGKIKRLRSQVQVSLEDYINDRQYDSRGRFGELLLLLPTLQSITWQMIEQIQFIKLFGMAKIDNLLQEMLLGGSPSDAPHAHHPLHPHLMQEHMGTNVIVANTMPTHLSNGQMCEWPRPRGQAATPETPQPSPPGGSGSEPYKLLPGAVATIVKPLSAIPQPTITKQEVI", "assay_type": "functional, cell-based"}, "[17]": {"test": "ARNT/TACC3 interaction disruptors, potency, confirmation, biochemical, AlphaScreen, cherry-picked samples (AID 651703)", "assay_type": "functional, Homo sapiens"}, "[18]": {"test": "nonselective inhibitors of cellular cAMP signaling, dose response, counter-screen for MC4R biased antagonist project, cell-based, TR-FRET cAMP detection (AID 602305)", "assay_type": "functional"}, "[19]": {"target": "Melanocortin receptor 4 (Homo sapiens, UniProt P32245)", "sequence (P32245 whole entry)": "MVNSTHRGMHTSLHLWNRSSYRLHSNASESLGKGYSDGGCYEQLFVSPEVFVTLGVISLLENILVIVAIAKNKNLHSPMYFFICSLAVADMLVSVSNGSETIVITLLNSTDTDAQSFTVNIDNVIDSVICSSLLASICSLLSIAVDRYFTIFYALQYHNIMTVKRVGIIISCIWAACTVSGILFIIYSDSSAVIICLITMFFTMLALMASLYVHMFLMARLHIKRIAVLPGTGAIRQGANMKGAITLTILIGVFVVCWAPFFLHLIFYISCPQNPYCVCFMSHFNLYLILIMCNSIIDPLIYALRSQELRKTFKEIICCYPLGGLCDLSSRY", "test": "MC4R antagonist potency on cAMP, dose response, cell-based, TR-FRET, biased antagonists (AID 602298)", "assay_type": "functional"}, "[20]": {"test": "cytotoxicity in MIN6 insulinoma cells, dose response, cytotoxicity control, cell-based, mouse insulinoma (AID 2122)", "assay_type": "functional"}, "[21]": {"test": "insulin promoter down-regulators in MIN6 cells, imaging, high-content screening, mouse beta cells (AID 1628)", "assay_type": "functional"}, "[22]": {"tested_on": "HeLa", "test": "HeLa cell cytotoxicity, dose response, cytotoxicity control for MITF activator project, CellTiter-Glo luminescence, cherry-pick samples (AID 540259)", "assay_type": "functional, cell-based", "conditions": "Homo sapiens"}}, "note": "Calls of active or inactive are those of the source.", "data": [{"compound": "Cc1ccc2c(Cl)c(Cc3ccccc3)c(=S)[nH]c2n1", "values": [{"measurement": "EC50", "setting": "[1]", "result": "> 92.5 µM (inactive)"}, {"measurement": "EC50", "setting": "[2]", "result": "> 92.5 µM (inactive)"}, {"measurement": "EC50", "setting": "[3]", "result": "> 92.5 µM (inactive)"}]}, {"compound": "Cc1ccc(NC(=O)CSc2nnc(-c3ccncc3)o2)cc1", "values": [{"measurement": "AC50", "setting": "[4]", "result": "inconclusive"}]}, {"compound": "Cc1ccc(S(=O)(=O)NC(=Nc2ccc([N+](=O)[O-])cc2[N+](=O)[O-])c2ccccc2)cc1", "values": [{"measurement": "EC50", "setting": "[5]", "result": "> 53 µM (inactive)"}, {"measurement": "IC50", "setting": "[6]", "result": "9.98 µM (active)"}, {"measurement": "IC50", "setting": "[7]", "result": "> 20 µM (inactive)"}]}, {"compound": "CC/C(=C\\c1oc2cc3ccccc3cc2[n+]1CC)Nc1ccccc1", "values": [{"measurement": "CC50", "setting": "[8]", "result": "16 µM (active)"}, {"measurement": "CC50", "setting": "[9]", "result": "> 20 µM (active)"}, {"measurement": "CC50", "setting": "[10]", "result": "> 20 µM (active)"}, {"measurement": "CC50", "setting": "[11]", "result": "18.7 µM (active)"}]}, {"compound": "O=C1NC(=O)N(CCC2=CCCCC2)C(=O)/C1=C\\Nc1cccc(F)c1", "values": [{"measurement": "EC50", "setting": "[12]", "result": "> 120 µM (not active)"}, {"measurement": "AC50", "setting": "[13]", "result": "10 µM (inconclusive)"}, {"measurement": "AC50", "setting": "[4]", "result": "inconclusive"}, {"measurement": "EC50", "setting": "[14]", "result": "> 120 µM (not active)"}, {"measurement": "EC50", "setting": "[15]", "result": "41.4 µM (active)"}]}, {"compound": "CC(=O)Oc1ccc(C23c4ccccc4C2(OC(C)=O)c2cc(OC(C)=O)ccc23)cc1", "note": "(stereo not drawn)", "values": [{"measurement": "IC50", "setting": "[16]", "result": "5.5 µM (active)"}]}, {"compound": "Cc1nn2c(nc1=O)NNC2(C)C(C)(C)C", "note": "(stereo not drawn)", "values": [{"measurement": "AC50", "setting": "[17]", "result": "130 µM (active)"}]}, {"compound": "CC(NC(=O)COC(=O)CNS(=O)(=O)/C=C/c1ccccc1)c1ccccc1", "note": "(stereo not drawn)", "values": [{"measurement": "IC50", "setting": "[18]", "result": "> 64.6 µM (inactive)"}, {"measurement": "IC50", "setting": "[19]", "result": "> 64.6 µM (inactive)"}]}, {"compound": "C=CCC(C#Cc1ccccc1)[N+](C)(C)CC=C", "note": "(stereo not drawn)", "values": [{"measurement": "IC50", "setting": "[20]", "result": "10.7 µM (inactive)"}, {"measurement": "IC50", "setting": "[21]", "result": "8.7 µM (active)"}]}, {"compound": "CN(CC(=O)Nc1ccccc1Br)C(=O)c1cc2c(s1)CCCCC2", "values": [{"measurement": "AC50", "setting": "[22]", "result": "> 350 µM (inactive)"}]}]}
